We go through 1 molecule from paper PMC9097129, “C-terminal mini-PEGylation of a marine peptide N6 had potent antibacterial and anti-inflammatory properties against Escherichia coli and Salmonella strains in vitro and in vivo” (BMC Microbiology, 2022).

One experiment deals with E. coli ATCCO157. The experiment is classed as cell-based, Escherichia coli. To be noted: MHB, 1 × 10^5 CFU/mL, 37 °C, 18 – 24 h, triplicate. How it is done:
(§1) The MIC was determined according to the method developed by Clinical and Laboratory Standards Institute (CLSI). The strains were cultured in Mueller–Hinton Broth medium (MHB) at the appropriate temperature until mid-log phase. A series of two-fold dilutions of N6 and PEGylated N6 (10 μL) and bacterial suspension (1 × 10^5 CFU/mL, 90 μL) were added into 96-well plates and incubated at 37 °C for 18 – 24 h. PBS and MHB were used as the negative and blank control, respectively. All assays were conducted in triplicate.

In a further experiment the test system is E. coli CVCC1515. It is filed as cell-based, Escherichia coli. How it is done:
as §1

In the next experiment the test system is E. coli CVCC195. It is filed as cell-based, Escherichia coli. How it is done: as §1
The next experiment has as its system E. coli CVCC25922. The experiment is classed as cell-based, Escherichia coli. How it is done: as §1
For the next experiment, the system named is P. aeruginosa CICC21630. It is filed as cell-based. How it is done:
as §1

Another experiment has as its system S. aureus ATCC25923. The experiment is classed as cell-based. How it is done:
as §1

Another experiment deals with S. aureus ATCC43300. The experiment is classed as cell-based. How it is done:
as §1

The subject of another experiment is S. aureus ATCC546. The experiment is classed as cell-based. How it is done: as §1
In a further experiment the test system is S. enteritidis CVCC3377. The experiment is classed as cell-based. How it is done:
as §1

The subject of a further experiment is S. hyicus NCTC10350. The experiment is classed as cell-based. How it is done:
as §1

The next experiment has as its system S. typhimurium ATCC14028. The experiment is classed as cell-based. How it is done: as §1
A further experiment deals with S. pullorum CVCC1789. The experiment is classed as cell-based, Salmonella pullorum. How it is done: as §1
The test system of a further experiment is S. pullorum CVCC1802. The experiment is classed as cell-based, Salmonella pullorum. How it is done: as §1
A further experiment concerns S. pullorum CVCC533. It is filed as cell-based, Salmonella pullorum. How it is done:
as §1

The subject of another experiment is C. albicans CMCC98001. The experiment is classed as cell-based, Candida albicans. How it is done:
as §1

Each structure is given as a SMILES string. ≈ marks a conversion by molar mass, not a printed value. Bridge positions count the residues as written; N and C are the ends. Square brackets hold non-standard residues; d marks the D form. Peptide text beside a SMILES is read from it. AEEA = NCCOCCOCC(=O)O Some results are limits rather than exact numbers.

As usually defined, the MIC is the lowest concentration that inhibits growth of the organism. Regarding `CC(C)[C@@H]1NC(=O)CNC(=O)[C@H](CC(N)=O)NC(=O)[C@H](CCCNC(=N)N)NC(=O)[C@H](Cc2ccc(O)cc2)NC(=O)[C@H](C(C)C)NC(=O)[C@@H](NC(=O)[C@@H](NC(=O)[C@H](CC(N)=O)NC(=O)[C@H](Cc2c[nH]c3ccccc23)NC(=O)[C@H](C)NC(=O)[C@H](Cc2ccccc2)NC(=O)CNC(=O)COCCOCCN)C(C)C)CSSC[C@@H](C(=O)N[C@@H](Cc2c[nH]cn2)C(=O)N[C@@H](CCCNC(=N)N)C(=O)N[C@@H](CCCNC(=N)N)C(=O)N[C@@H](C)C(=O)N[C@@H](CC(N)=O)C(=O)O)NC(=O)[C@H](C(C)C)NC(=O)[C@H](CCCNC(=N)N)NC1=O` [N6-NH2-miniPEG] (H-[AEEA]GFAWNVCVYRNGVRVCHRRAN-OH; disulfide 8-17), the MIC in the experiment with E. coli ATCCO157 was 6.10 µM (≈ 16 µg/mL); in the experiment on E. coli CVCC1515, 6.1 µM (≈ 16 µg/mL); in the experiment with E. coli CVCC195, 6.1 µM (≈ 16 µg/mL); in the experiment on E. coli CVCC25922, 3.05 µM (≈ 7.99 µg/mL); in the experiment on P. aeruginosa CICC21630, 24.42 µM (≈ 64 µg/mL); against S. aureus ATCC25923 it was above 48.84 µM. Further, the MIC is 48.84 µM (≈ 128 µg/mL) in the experiment with S. aureus ATCC43300; 48.84 µM (≈ 128 µg/mL) with S. aureus ATCC546; 6.10 µM (≈ 16 µg/mL) against S. enteritidis CVCC3377; above 48.84 µM in the experiment on S. hyicus NCTC10350; 6.10 µM (≈ 16 µg/mL) in the experiment on S. typhimurium ATCC14028; 6.10 µM (≈ 16 µg/mL) against S. pullorum CVCC1789. In addition, the results for the MIC in the experiment with S. pullorum CVCC1802, in the experiment with S. pullorum CVCC533 and in the experiment with C. albicans CMCC98001 were 6.10 µM (≈ 16 µg/mL), 12.21 µM (≈ 32 µg/mL) and above 48.84 µM, respectively.
